Data: ChEMBL document CHEMBL1138637, “Discovery of potent pyrrolidone-based HIV-1 protease inhibitors with enhanced drug-like properties” (Bioorg Med Chem Lett, 2004)

Molecular target: T1, Human immunodeficiency virus type 1 protease (Human immunodeficiency virus 1, UniProt Q72874)
Assay: Concentration required to in inhibit HIV-1 protease by 50%

| Structure (SMILES) | IC50 [nM] |
| --- | --- |
| COc1ccc(S(=O)(=O)N(CC2CCCC2)C[C@@H](O)CN2C(=O)C(Cc3ccccc3)OC[C@@H]2Cc2ccccc2)cc1 (stereo not given in full) | 30 |
| C=CCC1OC[C@H](Cc2ccccc2)N(C[C@H](O)CN(CC2CCCC2)S(=O)(=O)c2ccc(OC)cc2)C1=O (stereo not given in full) | 2 |

Molecular target: T1, Human immunodeficiency virus type 1 protease
Assay: Potency to inhibit HIV-1 protease

| Ki [nM] | Structure (SMILES) |
| --- | --- |
| 0.17 | O=C(NC1c2ccccc2C[C@H]1O)[C@H](Cc1ccccc1)C[C@H](O)CN1C(=O)C(Cc2cccnc2)C[C@@H]1Cc1ccccc1 (stereo in doubt) |
| 0.2 | CCNC(=O)Nc1cccc(C[C@H]2C[C@H](Cc3ccccc3)N(C[C@@H](O)C[C@@H](Cc3ccccc3)C(=O)NC3c4ccccc4C[C@H]3O)C2=O)c1 (stereo not given in full) |
| 0.08 | N#CCOc1cccc(C[C@H]2C[C@H](Cc3ccccc3)N(C[C@@H](O)C[C@@H](Cc3ccccc3)C(=O)NC3c4ccccc4C[C@H]3O)C2=O)c1 (stereo not given in full) |
| 0.05 | O=C(NC1c2ccccc2C[C@H]1O)[C@H](Cc1ccccc1)C[C@H](O)CN1C(=O)C(Cc2cccc(O)c2)C[C@@H]1Cc1ccccc1 (single isomer, unassigned; diastereomer 1) |
| 0.1 | Nc1cccc(CC2C[C@H](Cc3ccccc3)N(C[C@@H](O)C[C@@H](Cc3ccccc3)C(=O)NC3c4ccccc4C[C@H]3O)C2=O)c1 (single isomer, unassigned; diastereomer 1) |
| 0.45 | C=CC[C@H]1C[C@H](Cc2ccccc2)N(C[C@@H](O)C[C@@H](Cc2ccccc2)C(=O)NC2c3ccccc3C[C@H]2O)C1=O (stereo not given in full) |
| 0.09 | NC(=O)Cc1cccc(C[C@H]2C[C@H](Cc3ccccc3)N(C[C@@H](O)C[C@@H](Cc3ccccc3)C(=O)NC3c4ccccc4C[C@H]3O)C2=O)c1 (stereo not given in full) |
| 2.3 | Nc1ccc(CC2C[C@H](Cc3ccccc3)N(C[C@@H](O)C[C@@H](Cc3ccccc3)C(=O)NC3c4ccccc4C[C@H]3O)C2=O)cc1 (stereo not given in full) |
| 0.1 | CCOC(=O)CNC(=O)Nc1cccc(C[C@H]2C[C@H](Cc3ccccc3)N(C[C@@H](O)C[C@@H](Cc3ccccc3)C(=O)N[C@@H]3c4ccccc4C[C@H]3O)C2=O)c1 |
| 0.31 | O=C(NC1c2ccccc2C[C@H]1O)[C@H](Cc1ccccc1)C[C@H](O)CN1C(=O)C(Cc2ccncc2)C[C@@H]1Cc1ccccc1 (stereo not given in full) |
| 0.1 | NC(=O)c1cccc(C[C@H]2C[C@H](Cc3ccccc3)N(C[C@@H](O)C[C@@H](Cc3ccccc3)C(=O)N[C@@H]3c4ccccc4C[C@H]3O)C2=O)c1 |
| 0.05 | NC(=O)c1cccc(C[C@H]2C[C@H](Cc3ccccc3)N(C[C@@H](O)C[C@@H](Cc3ccc(OCCO)cc3)C(=O)N[C@@H]3c4ccccc4C[C@H]3O)C2=O)c1 |
| 14 | O=C(NC1c2ccccc2C[C@H]1O)[C@H](Cc1ccccc1)C[C@H](O)CN1C(=O)C(Cc2cccnc2)C[C@@H]1Cc1ccccc1 (single isomer, unassigned; diastereomer 2) |
| 0.34 | N#Cc1ccc(CC2C[C@H](Cc3ccccc3)N(C[C@@H](O)C[C@@H](Cc3ccccc3)C(=O)NC3c4ccccc4C[C@H]3O)C2=O)cc1 (stereo not given in full) |
| 0.24 | O=C(NCCOCCO)c1cccc(C[C@H]2C[C@H](Cc3ccccc3)N(C[C@@H](O)C[C@@H](Cc3ccccc3)C(=O)N[C@@H]3c4ccccc4C[C@H]3O)C2=O)c1 |
| 0.42 | COC(=O)c1cccc(CC2C[C@H](Cc3ccccc3)N(C[C@@H](O)C[C@@H](Cc3ccccc3)C(=O)NC3c4ccccc4C[C@H]3O)C2=O)c1 (single isomer, unassigned; diastereomer 1) |
| 0.15 | O=C(NCCN1CCOCC1)c1cccc(C[C@H]2C[C@H](Cc3ccccc3)N(C[C@@H](O)C[C@@H](Cc3ccccc3)C(=O)N[C@@H]3c4ccccc4C[C@H]3O)C2=O)c1 |
| 0.05 | N#Cc1cccc(CC2C[C@H](Cc3ccccc3)N(C[C@@H](O)C[C@@H](Cc3ccccc3)C(=O)NC3c4ccccc4C[C@H]3O)C2=O)c1 (single isomer, unassigned; diastereomer 1) |
